Data published in patent US7351811B2, “Gene SCC-112 and diagnostic and therapeutic uses thereof” (Georgetown University, priority 2001, dated 2008).
Values joined by “and” are separate entries in the source; they are usually repeats but may differ in a detail not shown here. Equal entries are not always repeated.

Key:
Format in all cases: cell-based, human
[1] = test system: SCC-112 mRNA in MDA-MB 435 cells; assay: Northern hybridization of SCC-112 mRNA in nocodazole-arrested (G2/M) MDA-MB 435 cells; details: 100 ng/ml, 16 h, G2/M phase
Protocol: (§1) (C) Expression of SCC-112 mRNA and protein in G2/M phase. Logarithmically growing cells were arrested at G2/M phase using 100 ng/ml of nocodazole for 16 h (+). SCC-112 mRNA (upper) and protein levels (lower) were quantified as above. The SCC-112. mRNA level was ˜2 fold higher during G2/M phase (+) as compared to untreated cells (−). SCC-112 protein level was elevated during G2/M phase (˜5 fold) in nocodazole treated cells (+) as compared to untreated cells (−).
(§2) RNA Isolation and Northern Hybridization: MDA-MB 435 cells were synchronized at different cell cycle stages, and total RNA was isolated with Trizol reagent according to the manufacturer's instructions (Invitrogen Life technologies, Inc.). […] The autoradiographs were scanned and bands were quantified using IMAGEQUANT software (Molecular Dynamics, Sunnyvale, Calif.).
(§3) Cell Synchronization and Flow Cytometry: Logarithmically growing MDA-MB 435 cells were treated with 4 ug/ml aphidicolin, a DNA polymerase-a inhibitor, for 24 h to synchronize cells at G1/S phase. […] The cell cycle distribution profiles were determined using a Fluorescence Activated Cell Sorter (Becton Dickinson).

[2] = test system: SCC-112 protein in MDA-MB 435 cells; assay: Western blot of SCC-112 protein in nocodazole-arrested (G2/M) MDA-MB 435 cells; details: 100 ng/ml, 16 h, G2/M phase
Protocol: as §1
Western Blot Analysis: The cells were rinsed with ice-cold PBS and scrapped in lysis solution containing Tris (20 mM, pH 8.0), NaCl (150 mM), 1% NP-40 (w/v), 10% glycerol (w/v), 1 mM phenylmethylsulphonyl fluoride (PMSF), aprotinin (20 ug/ml) and leupeptin (20 ug/ml). The cells were lysed for 45 min with vigorous shaking at 4° C. and centrifuged at 12,000×g for 15 min at 4° C. Fifty micrograms of total protein were heat denatured by boiling for 5 min in SDS-PAGE loading buffer. After SDS-PAGE, the proteins were electrophoretically transferred on to PVDF membrane (Millipore). […]
as §3

[3] = test system: SCC-112 mRNA in LnCap prostate cancer cells; assay: Northern hybridization of SCC-112 mRNA in androgen-treated LNCaP cells
Protocol: FIG. 5. Androgen induces the steady state levels of SCC-112 mRNA in prostate cancer cells. LNcap prostate cancer cells were grown in IMEM with 5% FBS. Logarithmically growing cells were switched to medium containing 5% charcoal stripped serum […] before the experiment. Indicated concentrations of synthetic androgen, R1881 (NEN) were added for 48 h. Total RNA was isolated and subjected to Northern hybridization using SCC-112 as probe.
FIG. 6. […] LnCAP cells were grown in IMEM medium containing 5% fetal bovine serum. Medium was replaced with 5% charcoal-stripped serum containing medium for 24 h, followed by addition of indicated concentration of synthetic androgen (R1881) for 48 h. Total RN A was isolated from various treatments and analyzed by northern blotting and hybridization using a radiolabeled SCC-112 cDNA fragment (1568 bp-6744 bp).
as §2

SMILES | SCC-112 mRNA level vs untreated cells [1] [fold] | SCC-112 protein level vs untreated cells [2] [fold] | induction of steady state level of SCC-112 transcript (~8.0 kb) ([3]; LNCaP cells, charcoal-stripped serum, 1 nM to 100 nM, 48 h, vs untreated cells) | effect on SCC-112 mRNA expression (in words) ([3]; LNCap cells, FIG. 5)
COC(=O)Nc1nc2ccc(C(=O)c3cccs3)cc2[nH]1 [nocodazole] | ~2 | ~5 |  | 
C[C@]1(O)CC[C@H]2[C@@H]3CCC4=CC(=O)CCC4=C3C=C[C@@]21C [R1881] |  |  | 4-7 fold and 4- to 7 fold | induces SCC-112 mRNA expression
